Measurements published in patent US20250302815A1, “PROTEIN TYROSINE PHOSPHATASE TARGETING LIGANDS” (CALICO LIFE SCIENCES LLC, priority 2021, published 2025).

Key:
[1] = target: T1, PTPN2 (HiBIT-PTPN2 in 293T.109 cells) (Homo sapiens, UniProt P17706); test: HiBiT Degradation 293T.109 PTPN2 (Nano-Glo HiBiT Lytic Assay); format: cell-based; conditions: 24.0 hours
T1 construct: expressed in transfected cells; host or cells: 293T.109 (293T WT from ATCC)
T1 sequence (P17706 1-415): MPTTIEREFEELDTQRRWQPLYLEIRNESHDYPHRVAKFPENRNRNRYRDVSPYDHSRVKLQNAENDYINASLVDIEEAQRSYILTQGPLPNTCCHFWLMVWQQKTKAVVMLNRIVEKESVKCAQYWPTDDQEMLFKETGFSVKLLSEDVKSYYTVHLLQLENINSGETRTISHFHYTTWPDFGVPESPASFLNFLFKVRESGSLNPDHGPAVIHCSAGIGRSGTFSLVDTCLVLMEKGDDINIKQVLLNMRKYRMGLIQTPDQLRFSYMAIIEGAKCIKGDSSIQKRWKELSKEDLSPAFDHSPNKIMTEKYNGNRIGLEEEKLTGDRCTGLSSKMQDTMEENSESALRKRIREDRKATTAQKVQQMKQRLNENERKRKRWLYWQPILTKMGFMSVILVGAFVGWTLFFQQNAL
Method in brief: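 Degradation read-out: lytic HiBiT luminescence after 24 h treatment (37 °C, 5% CO2) of 5000 293T cells per well expressing HiBiT-fused PTPN2 from an N-terminal tag. Dosing was 11 points, half-log steps down from 10 μM, in duplicate; vehicle-treated and no-reagent wells served as controls.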

[2] = target: T2, PTPN2 (B16F10.4 cells) (Mus musculus, UniProt Q06180); test: HiBiT Degradation B16F10.4 PTPN2; format: cell-based; conditions: 24.0 hours
T2 construct: HiBiT; host or cells: B16F10.4
T2 sequence (Q06180 1-406): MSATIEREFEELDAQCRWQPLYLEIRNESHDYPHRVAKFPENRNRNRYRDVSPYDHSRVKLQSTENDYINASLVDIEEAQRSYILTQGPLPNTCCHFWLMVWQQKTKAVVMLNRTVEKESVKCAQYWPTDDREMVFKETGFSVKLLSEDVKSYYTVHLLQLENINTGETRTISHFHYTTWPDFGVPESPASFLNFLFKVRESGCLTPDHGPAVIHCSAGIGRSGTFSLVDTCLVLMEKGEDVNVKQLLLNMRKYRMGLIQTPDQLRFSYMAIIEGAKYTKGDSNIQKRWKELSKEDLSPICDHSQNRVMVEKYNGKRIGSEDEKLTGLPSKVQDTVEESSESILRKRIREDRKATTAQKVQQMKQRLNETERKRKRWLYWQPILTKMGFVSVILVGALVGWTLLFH

| SMILES | DC50 [1] [nM] | DC50 [2] [nM] |
| --- | --- | --- |
| O=C(O)COc1c(C(=O)O)sc(-c2cccc(NC3CCN(S(=O)(=O)Cc4cccc(NC(=O)CCc5ccc6c(c5)CN(C5CCC(=O)NC5=O)C6=O)c4)CC3)c2)c1Cl (stereo not drawn) [Example 47] | 200 to 1000 | 200 to 1000 |
| Cn1c(=O)n(C2CCC(=O)NC2=O)c2ccc(CCC(=O)Nc3cccc(CS(=O)(=O)N4CCC(Nc5cccc(-c6sc(C(=O)O)c(OCC(=O)O)c6Cl)c5)CC4)c3)cc21 (stereo not drawn) [Example 49, 3-(carboxymethoxy)-4-chloro-5-(3-((1-((3-(3-(1-(2,6-dioxopiperidin-3-yl)-3-methyl-2-oxo-2,3-dihydro-1H-benzo[d]imidazol-5-yl)propanamido)benzyl)sulfonyl)piperidin-4-yl)amino)phenyl)thiophene-2-carboxylic acid] | 200 to 1000 | 200 to 1000 |
| Cn1c(=O)n(C2CCC(=O)NC2=O)c2cccc(C3CCN(C(=O)Nc4cccc(CS(=O)(=O)N5CCC(Nc6cccc(-c7sc(C(=O)O)c(OCC(=O)O)c7Cl)c6)CC5)c4)CC3)c21 (stereo not drawn) [Example 52, 3-(carboxymethoxy)-4-chloro-5-[3-[[1-[[3-[[4-[1-(2,6-dioxo-3-piperidyl)-3-methyl-2-oxo-benzimidazol-4-yl]piperidine-1-carbonyl]amino]phenyl]methylsulfonyl]-4-piperidyl]amino]phenyl]thiophene-2-carboxylic acid] | 200 to 1000 | 200 to 1000 |
| O=C(O)COc1c(C(=O)O)sc(-c2cccc(NC3CCN(S(=O)(=O)Cc4cccc(NC(=O)CN5CCC(n6nc(C7CCC(=O)NC7=O)c7ccccc76)CC5)c4)CC3)c2)c1Cl (stereo not drawn) [Example 54] | ≥ 1000 | ≥ 1000 |
| CC1(C)C[C@@H](Nc2cccc(-c3sc(C(=O)O)c(OCC(=O)O)c3Cl)c2)CCN1S(=O)(=O)Cc1cccc(NC(=O)CCN2CCC(Oc3cccc4c3CN(C3CCC(=O)NC3=O)C4=O)CC2)c1 (stereo partly drawn) [Example 56] | ≥ 1000 | ≥ 1000 |
| CC1(C)C[C@@H](Nc2cccc(-c3sc(C(=O)O)c(OCC(=O)O)c3Cl)c2)CCN1S(=O)(=O)Cc1cccc(NC(=O)C2CN(C(=O)CNc3ccc4c(c3)CN(C3CCC(=O)NC3=O)C4=O)C2)c1 (stereo partly drawn) [Example 57, 3-(carboxymethoxy)-4-chloro-5-[3-[[(4S)-1-[[3-[[1-[2-[[2-(2,6-dioxo-3-piperidyl)-1-oxo-isoindolin-5-yl]amino]acetyl]azetidine-3-carbonyl]amino]phenyl]methylsulfonyl]-2,2-dimethyl-4-piperidyl]amino]phenyl]thiophene-2-carboxylic acid] | 50 to 200 | ≥ 1000 |
| CC1(C)C[C@@H](Nc2cccc(-c3sc(C(=O)O)c(OCC(=O)O)c3Cl)c2)CCN1S(=O)(=O)Cc1cccc(NC(=O)C2CCN(C(=O)COc3cccc4c3C(=O)N(C3CCC(=O)NC3=O)C4=O)CC2)c1 (stereo partly drawn) [Example 58, 3-(carboxymethoxy)-4-chloro-5-[3-[[(4S)-1-[3-[[1-[2-[[2-(2,6-dioxo-3-piperidyl)-1,3-dioxo-isoindolin-4-yl]oxyacetyl]piperidine-4-carbonyl]amino]phenyl]methylsulfonyl]-2,2-dimethyl-4-piperidyl]amino]phenyl]thiophene-2-carboxylic acid] | 200 to 1000 | ≥ 1000 |
| O=C(O)COc1c(C(=O)O)sc(-c2cccc(NC3CCN(S(=O)(=O)Cc4cccc(NC(=O)N5CCC(Nc6cccc7c6CN(C6CCC(=O)NC6=O)C7=O)CC5)c4)CC3)c2)c1Cl (stereo not drawn) [Example 59, 3-(carboxymethoxy)-4-chloro-5-[3-[[1-[[3-[[4-[[2-(2,6-dioxo-3-piperidyl)-1-oxo-isoindolin-4-yl]amino]piperidine-1-carbonyl]amino]phenyl]methylsulfonyl]-4-piperidyl]amino]phenyl]thiophene-2-carboxylic acid] | 200 to 1000 | 200 to 1000 |
| Cn1c(=O)n(C2CCC(=O)NC2=O)c2ccc(C3CCN(C(=O)Nc4cccc(CS(=O)(=O)N5CC[C@H](Nc6cccc(-c7sc(C(=O)O)c(OCC(=O)O)c7Cl)c6)CC5(C)C)c4)CC3)cc21 (stereo partly drawn) [Example 60, 3-(carboxymethoxy)-4-chloro-5-(3-(((4S)-1-((3-(4-(1-(2,6-dioxopiperidin-3-yl)-3-methyl-2-oxo-2,3-dihydro-1H-benzo[d]imidazol-5-yl)piperidine-1-carboxamido)benzyl)sulfonyl)-2,2-dimethylpiperidin-4-yl)amino)phenyl)thiophene-2-carboxylic acid] | 50 to 200 | < 50 |

Results, then the molecule that gave them:

| DC50 [1] [nM] | DC50 [2] [nM] | SMILES |
| --- | --- | --- |
| < 50 | 200 to 1000 | CC1(C)C[C@@H](Nc2cccc(-c3sc(C(=O)O)c(OCC(=O)O)c3Cl)c2)CCN1S(=O)(=O)Cc1cccc(NC(=O)CCN2CCC(Nc3cccc4c3CN(C3CCC(=O)NC3=O)C4=O)CC2)c1 (stereo partly drawn) [Example 46, 3-(carboxymethoxy)-4-chloro-5-(3-(((4S)-1-((3-(3-(4-((2-(2,6-dioxopiperidin-3-yl)-1-oxoisoindolin-4-yl)amino)piperidin-1-yl)propanamido)benzyl)sulfonyl)-2,2-dimethylpiperidin-4-yl)amino)phenyl)thiophene-2-carboxylic acid] |
| < 50 | 200 to 1000 | CC1(C)C[C@@H](Nc2cccc(-c3sc(C(=O)O)c(OCC(=O)O)c3Cl)c2)CCN1S(=O)(=O)Cc1cccc(NC(=O)C2CCN(C(=O)CNc3cccc4c3CN(C3CCC(=O)NC3=O)C4=O)CC2)c1 (stereo partly drawn) [Example 48, 3-(carboxymethoxy)-4-chloro-5-(3-(((4S)-1-((3-(1-((2-(2,6-dioxopiperidin-3-yl)-1-oxoisoindolin-4-yl)glycyl)piperidine-4-carboxamido)benzyl)sulfonyl)-2,2-dimethylpiperidin-4-yl)amino)phenyl)thiophene-2-carboxylic acid] |
| < 50 | ≥ 1000 | O=C(O)COc1c(C(=O)O)sc(-c2cccc(NC3CCN(S(=O)(=O)Cc4cccc(NC(=O)CCN5CCC(Nc6cccc7c6CN(C6CCC(=O)NC6=O)C7=O)CC5)c4)CC3)c2)c1Cl (stereo not drawn) [Example 50, 3-(carboxymethoxy)-4-chloro-5-[3-[[1-[[3-[3-[4-[[2-(2,6-dioxo-3-piperidyl)-1-oxo-isoindolin-4-yl]amino]-1-piperidyl]propanoylamino]phenyl]methylsulfonyl]-4-piperidyl]amino]phenyl]thiophene-2-carboxylic acid] |
| 50 to 200 | 50 to 200 | Cn1c(=O)n(C2CCC(=O)NC2=O)c2ccc(C3CCN(C(=O)Nc4cccc(CS(=O)(=O)N5CCC(Nc6cccc(-c7sc(C(=O)O)c(OCC(=O)O)c7Cl)c6)CC5)c4)CC3)cc21 (stereo not drawn) [Example 51, 3-(carboxymethoxy)-4-chloro-5-[3-[[1-[[3-[[4-[1-(2,6-dioxo-3-piperidyl)-3-methyl-2-oxo-benzimidazol-5-yl]piperidine-1-carbonyl]amino]phenyl]methylsulfonyl]-4-piperidyl]amino]phenyl]thiophene-2-carboxylic acid] |
| 50 to 200 | 200 to 1000 | Cn1c(=O)n(C2CCC(=O)NC2=O)c2cccc(CCC(=O)Nc3cccc(CS(=O)(=O)N4CCC(Nc5cccc(-c6sc(C(=O)O)c(OCC(=O)O)c6Cl)c5)CC4)c3)c21 (stereo not drawn) [Example 53] |
| 50 to 200 | 50 to 200 | Cn1c(=O)n(C2CCC(=O)NC2=O)c2ccc(C3CCN(CC(=O)Nc4cccc(CS(=O)(=O)N5CCC(Nc6cccc(-c7sc(C(=O)O)c(OCC(=O)O)c7Cl)c6)CC5)c4)CC3)cc21 (stereo not drawn) [Example 55, 3-(carboxymethoxy)-4-chloro-5-[3-[[1-[[3-[[2-[4-[1-(2,6-dioxo-3-piperidyl)-3-methyl-2-oxo-benzimidazol-5-yl]-1-piperidyl]acetyl]amino]phenyl]methylsulfonyl]-4-piperidyl]amino]phenyl]thiophene-2-carboxylic acid] |
